Results published in ChEMBL document CHEMBL1201862, “PubChem BioAssay data set” (2004).
One block for each compound: values may come before it. Activity calls are given as the source filed them.

Assays:
[1] = target: T1, Short transient receptor potential channel 4 (Mus musculus, UniProt Q9QUQ5); test: mouse TRPC4 channel activators, dose response, cell-based, HEK293 TRPC4/mu-opioid, Fluo-4 calcium (AID 434937); assay type: functional
T1 sequence (Q9QUQ5 whole entry): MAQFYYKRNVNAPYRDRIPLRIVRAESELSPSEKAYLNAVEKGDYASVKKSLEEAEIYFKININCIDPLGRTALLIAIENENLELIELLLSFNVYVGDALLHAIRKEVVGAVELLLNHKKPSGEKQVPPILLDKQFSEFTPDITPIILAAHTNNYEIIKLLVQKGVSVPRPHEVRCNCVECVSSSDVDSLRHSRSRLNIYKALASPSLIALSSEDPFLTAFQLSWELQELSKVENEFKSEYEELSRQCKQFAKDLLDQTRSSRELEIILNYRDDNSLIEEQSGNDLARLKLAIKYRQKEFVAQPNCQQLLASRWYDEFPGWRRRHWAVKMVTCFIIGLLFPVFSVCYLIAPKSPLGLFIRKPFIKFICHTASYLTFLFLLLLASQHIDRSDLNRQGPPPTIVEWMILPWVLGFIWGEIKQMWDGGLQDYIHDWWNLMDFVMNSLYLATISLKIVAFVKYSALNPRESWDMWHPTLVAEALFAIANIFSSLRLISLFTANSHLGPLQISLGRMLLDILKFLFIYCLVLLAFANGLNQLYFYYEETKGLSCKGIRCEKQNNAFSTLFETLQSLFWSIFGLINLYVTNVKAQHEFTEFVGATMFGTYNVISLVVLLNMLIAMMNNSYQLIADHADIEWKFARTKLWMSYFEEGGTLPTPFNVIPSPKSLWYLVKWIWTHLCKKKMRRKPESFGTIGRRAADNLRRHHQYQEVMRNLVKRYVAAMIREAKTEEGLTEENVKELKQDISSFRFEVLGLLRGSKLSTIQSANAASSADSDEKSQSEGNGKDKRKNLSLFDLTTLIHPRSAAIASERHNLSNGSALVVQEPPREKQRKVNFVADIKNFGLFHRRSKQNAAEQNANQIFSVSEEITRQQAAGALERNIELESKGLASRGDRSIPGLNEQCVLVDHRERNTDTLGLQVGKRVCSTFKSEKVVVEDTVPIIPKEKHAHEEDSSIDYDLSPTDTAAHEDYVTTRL

[2] = target: 5-hydroxytryptamine receptor 5A (Homo sapiens, UniProt P47898); test: Counterscreen for agonists of OPRM1-OPRD1 heterodimerization: luminescence-based cell-based high throughput dose response assay to identify agonists of 5-hydroxytryptamine (serotonin) 5A receptor (HTR5A). [Related pubchem assays (depositor defined):AID504326, AID504355, AID504692, AID504904, AID504905]; assay type: functional
[3] = target: Delta-type opioid receptor (Homo sapiens, UniProt P41143); test: Counterscreen for agonists of heterodimerization of the mu 1 (OPRM1) and delta 1 (OPRD1) opioid receptors: Luminescence-based cell-based high throughput dose response assay to identify agonists of OPRD1 homodimerization. [Related pubchem assays (depositor defined):AID504326, AID504355, AID504692, AID504904, AID504905]; assay type: functional
Mu-type opioid receptor = Mu-type opioid receptor (Homo sapiens, UniProt P35372); test: Counterscreen for agonists of heterodimerization of the mu 1 (OPRM1) and delta 1 (OPRD1) opioid receptors: Luminescence-based cell-based high throughput dose response assay to identify agonists of OPRM1 homodimerization.; assay type: functional;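 note: U2OS cells expressing OPRM1 and beta-arrestin as split beta-galactosidase partners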
[4] = target: T2, Low molecular weight phosphotyrosine protein phosphatase (Homo sapiens, UniProt P24666); assay type: functional; conditions: read-out: IC50_Mean;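 note: Dose-response confirmation assay measuring inhibition of LMPTP enzyme activity by fluorescence intensity read-out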
T2 sequence (P24666 whole entry): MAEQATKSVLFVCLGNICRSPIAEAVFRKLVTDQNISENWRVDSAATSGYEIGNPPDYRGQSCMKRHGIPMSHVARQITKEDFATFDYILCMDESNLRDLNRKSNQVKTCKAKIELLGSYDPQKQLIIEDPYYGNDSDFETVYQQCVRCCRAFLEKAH

[5] = THP-1 cell cytotoxicity, dose response, cytotoxicity control for Vif-APOBEC3G degradation inhibitor project, THP-1 cells (AID 1117359); assay type: functional; conditions: Human immunodeficiency virus 1, THP-1
[6] = ADAM10 protease inhibitors, dose response, selectivity assay for ADAM17 exosite inhibitor project, biochemical, FRET peptide substrate, recombinant human ADAM10 (AID 743259);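 note: ADAM10 enzyme cleaving a FRET peptide substrate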
[7] = target: Disintegrin and metalloproteinase domain-containing protein 17 (Homo sapiens, UniProt P78536); test: exosite inhibitors of ADAM17, dose response, biochemical (AID 743260)
[8] = NIH:OVCAR-3 ovarian cancer cell cytotoxicity, dose response, PAX8 inhibitor project, plate reader, dry powder samples (AID 743044); assay type: functional, cell-based
Paired box protein Pax-8 = Paired box protein Pax-8 (Homo sapiens, UniProt Q06710); test: inhibitors of PAX8-driven TPO luciferase reporter, dose response, RMG-I cells, cherry-pick (AID 687027); assay type: functional, cell-based;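 note: luciferase reporter driven by Pax8 target thyroperoxidase promoter measured by SteadyGlo luminescence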
[9] = cytotoxicity in OVCAR8 ovarian cancer cells, dose response, PAX8 project, cell-based, plate reader, dry powder samples (AID 743197); assay type: functional; conditions: OVCAR-8
[10] = target: Induced myeloid leukemia cell differentiation protein Mcl-1 (Homo sapiens, UniProt Q07820); assay type: functional
[11] = P. falciparum Dd2 growth inhibitors, dose response, SYBR Green, cherry-picked samples (AID 1159567); assay type: functional, cell-based
[12] = HepG2 cell cytotoxicity, dose response, cytotoxicity control, plate reader, dry powder samples (AID 1159569); assay type: functional, cell-based;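 note: inhibitor potency with signal falling toward the positive control level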
[13] = P. falciparum Dd2 growth inhibitors, dose response, SYBR Green, dry powder samples (AID 1159566); assay type: functional, cell-based;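 note: potency for growth inhibition with lower SYBR green DNA signal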
[14] = P. falciparum ATP4 D1247Y mutant growth inhibitors, dose response, NITD609-resistant line, SYBR Green, dry powder (AID 1159571); assay type: functional, cell-based;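 note: parasites synchronized at ring stage by sorbitol before testing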
[15] = P. falciparum 3D7-ScDHODH growth inhibitors, dose response, SYBR Green, dry powder samples (AID 1159570); assay type: functional, cell-based;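 note: parasite growth measured after 72 hours of compound exposure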

Paired box protein Pax-8, sequence (Q06710 whole entry): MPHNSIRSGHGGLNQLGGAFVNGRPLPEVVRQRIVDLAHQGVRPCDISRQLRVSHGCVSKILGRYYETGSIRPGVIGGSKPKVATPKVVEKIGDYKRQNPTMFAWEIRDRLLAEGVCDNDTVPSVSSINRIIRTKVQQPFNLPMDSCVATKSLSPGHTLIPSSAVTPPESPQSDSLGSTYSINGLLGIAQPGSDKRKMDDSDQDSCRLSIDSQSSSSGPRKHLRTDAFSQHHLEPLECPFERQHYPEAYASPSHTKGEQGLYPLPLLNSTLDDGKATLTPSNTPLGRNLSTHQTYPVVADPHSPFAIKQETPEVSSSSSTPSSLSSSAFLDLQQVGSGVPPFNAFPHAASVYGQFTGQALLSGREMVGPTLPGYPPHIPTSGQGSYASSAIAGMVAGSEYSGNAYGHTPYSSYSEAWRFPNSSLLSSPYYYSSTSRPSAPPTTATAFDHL
Disintegrin and metalloproteinase domain-containing protein 17, sequence (P78536 whole entry, the tested form may be a part): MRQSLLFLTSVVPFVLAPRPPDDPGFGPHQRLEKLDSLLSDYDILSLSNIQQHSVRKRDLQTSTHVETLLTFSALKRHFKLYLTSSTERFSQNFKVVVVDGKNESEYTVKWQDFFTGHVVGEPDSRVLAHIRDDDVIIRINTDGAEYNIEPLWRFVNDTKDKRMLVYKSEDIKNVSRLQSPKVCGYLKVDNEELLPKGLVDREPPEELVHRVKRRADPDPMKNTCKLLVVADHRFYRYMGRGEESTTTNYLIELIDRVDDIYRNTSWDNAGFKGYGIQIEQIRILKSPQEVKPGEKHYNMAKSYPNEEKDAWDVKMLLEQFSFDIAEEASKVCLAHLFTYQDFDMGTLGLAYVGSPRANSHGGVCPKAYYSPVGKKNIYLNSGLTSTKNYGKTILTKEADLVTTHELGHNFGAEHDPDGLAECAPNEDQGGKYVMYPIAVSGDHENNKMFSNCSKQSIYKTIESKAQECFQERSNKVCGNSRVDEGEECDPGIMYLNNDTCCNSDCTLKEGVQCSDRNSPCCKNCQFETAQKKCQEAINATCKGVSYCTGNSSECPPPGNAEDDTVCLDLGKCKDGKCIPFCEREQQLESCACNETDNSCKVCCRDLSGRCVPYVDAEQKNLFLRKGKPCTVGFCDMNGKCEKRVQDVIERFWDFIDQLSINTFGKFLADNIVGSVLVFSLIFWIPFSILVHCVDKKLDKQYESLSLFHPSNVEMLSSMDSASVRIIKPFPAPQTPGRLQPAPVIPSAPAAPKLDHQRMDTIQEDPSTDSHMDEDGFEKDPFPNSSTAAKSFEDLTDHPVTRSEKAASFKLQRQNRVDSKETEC
5-hydroxytryptamine receptor 5A, sequence (P47898 whole entry): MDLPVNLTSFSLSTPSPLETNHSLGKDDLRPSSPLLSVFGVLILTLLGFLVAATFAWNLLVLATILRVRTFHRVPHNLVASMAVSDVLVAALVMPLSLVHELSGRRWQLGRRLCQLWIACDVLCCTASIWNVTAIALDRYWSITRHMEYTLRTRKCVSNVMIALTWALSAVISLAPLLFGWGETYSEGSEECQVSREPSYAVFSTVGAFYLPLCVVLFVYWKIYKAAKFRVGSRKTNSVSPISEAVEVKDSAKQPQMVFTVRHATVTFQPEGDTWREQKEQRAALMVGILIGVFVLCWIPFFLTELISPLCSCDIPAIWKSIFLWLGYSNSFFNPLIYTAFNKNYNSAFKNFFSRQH
Mu-type opioid receptor, sequence (P35372 whole entry): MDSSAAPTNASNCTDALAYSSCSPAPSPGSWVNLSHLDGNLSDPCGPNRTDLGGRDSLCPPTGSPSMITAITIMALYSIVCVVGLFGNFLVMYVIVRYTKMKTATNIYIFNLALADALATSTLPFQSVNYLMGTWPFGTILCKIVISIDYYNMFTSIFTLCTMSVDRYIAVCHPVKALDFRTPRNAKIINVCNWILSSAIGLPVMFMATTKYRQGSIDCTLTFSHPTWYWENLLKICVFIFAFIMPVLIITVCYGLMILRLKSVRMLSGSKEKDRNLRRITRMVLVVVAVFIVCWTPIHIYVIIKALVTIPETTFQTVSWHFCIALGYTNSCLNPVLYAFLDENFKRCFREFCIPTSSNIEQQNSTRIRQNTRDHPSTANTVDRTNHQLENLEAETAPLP
Induced myeloid leukemia cell differentiation protein Mcl-1, sequence (Q07820 whole entry): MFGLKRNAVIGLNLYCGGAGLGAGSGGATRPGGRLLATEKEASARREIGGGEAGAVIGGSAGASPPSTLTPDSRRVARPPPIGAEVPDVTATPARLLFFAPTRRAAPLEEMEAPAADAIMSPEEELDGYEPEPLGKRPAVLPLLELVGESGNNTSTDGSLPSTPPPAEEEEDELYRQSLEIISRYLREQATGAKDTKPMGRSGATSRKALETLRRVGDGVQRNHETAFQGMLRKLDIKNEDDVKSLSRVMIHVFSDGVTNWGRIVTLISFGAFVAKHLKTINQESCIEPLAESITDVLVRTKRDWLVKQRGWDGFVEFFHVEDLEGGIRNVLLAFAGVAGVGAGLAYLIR
Delta-type opioid receptor, sequence (P41143 whole entry): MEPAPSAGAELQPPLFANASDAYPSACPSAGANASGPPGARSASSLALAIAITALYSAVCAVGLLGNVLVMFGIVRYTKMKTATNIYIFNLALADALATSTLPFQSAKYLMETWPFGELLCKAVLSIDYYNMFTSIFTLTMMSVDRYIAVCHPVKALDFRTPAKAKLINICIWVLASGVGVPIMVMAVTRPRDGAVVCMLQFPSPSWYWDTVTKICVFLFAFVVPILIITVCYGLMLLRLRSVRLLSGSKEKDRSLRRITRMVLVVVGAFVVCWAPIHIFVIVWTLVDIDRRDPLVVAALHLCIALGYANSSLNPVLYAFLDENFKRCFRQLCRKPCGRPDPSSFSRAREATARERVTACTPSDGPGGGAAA

EC50 [1]: 1.88 µM (active) | EC50 [2]: > 92.5 µM (inactive) | EC50 [3]: > 92.5 µM (inactive) | EC50 (Mu-type opioid receptor): > 92.5 µM (inactive)
SMILES: Cc1cccc2cc(C(c3nnnn3Cc3ccccc3)N3CCN(C)CC3)c(O)nc12 (centres undefined)

IC50 [4]: 6.19 µM (active)
SMILES: O=c1cc(-c2ccsc2)oc2cc(-c3ccc4c(c3)OCO4)ccc12

SMILES: O=C(Nc1nc(-c2ccco2)c(-c2ccco2)s1)c1ccc(F)cc1F
CC50 [5]: > 40 µM (active)

SMILES: Cc1nn(C)cc1CNC(=O)C1C2CCC(C2)C1C(=O)O (centres undefined)
CC50 [5]: > 40 µM (active)

IC50 [7]: > 69.5 µM (inactive)
SMILES: CCOC(=O)/C=C1\CN(Cc2ccc(OC)cc2)S(=O)(=O)c2ccccc21
IC50 [6]: > 69.5 µM (inactive)

SMILES: C[C@@H]1CN([C@H](C)CO)S(=O)(=O)c2ccc(C#CC3CCCC3)cc2O[C@H]1CN(C)Cc1cccnc1
AC50 [8]: 26.2 µM (active) | AC50 (Paired box protein Pax-8): 12.5 µM (active) | AC50 [9]: 50.2 µM (active)

SMILES: COc1ccccc1C(=O)Nc1ccc2c(c1)C(=O)N(C)[C@@H]1CC[C@@H](CC(=O)NCc3ccc(Cl)c(Cl)c3)O[C@H]1CO2
AC50 [8]: 40.8 µM (active) | AC50 (Paired box protein Pax-8): 1.57 µM (active) | AC50 [9]: 55.9 µM (active)

IC50 [7]: > 69.6 µM (inactive)
SMILES: O=C(CN1CCN(c2nc(-c3ccccc3)cs2)CC1)Nc1ccc(Cl)c(Cl)c1
IC50 [6]: 37.8 µM (inactive)

IC50 [10]: 3.28 µM (active)
SMILES: CC(C)c1ccc(S(=O)(=O)/N=C2/C=CC(=O)c3ccccc32)cc1
CC50 [5]: 18.2 µM (active)

SMILES: COCc1cn([C@@H]2C[C@@H]3O[C@H](CO)CC[C@@H]3O[C@@H]2CCc2ccc(-c3ccc(OC)cc3)cc2)nn1
AC50 [11]: 0.782 µM (active) | AC50 [12]: 37.4 µM (active) | AC50 [13]: 0.426 µM (active) | AC50 [14]: 0.571 µM (active) | AC50 [15]: 0.424 µM (active)

SMILES: COc1cccc(C#Cc2ccc([C@H]3[C@@H](CO)N4C(=O)CN(C(=O)c5ccccc5)C[C@H]34)cc2)c1
AC50 [11]: 0.791 µM (active) | AC50 [12]: 22.3 µM (active) | AC50 [13]: 0.398 µM (active) | AC50 [14]: 0.53 µM (active) | AC50 [15]: 1.03 µM (active)
